Paper PMC8955734, “4-Arylthiosemicarbazide Derivatives as Toxoplasmic Aromatic Amino Acid Hydroxylase Inhibitors and Anti-inflammatory Agents” (International Journal of Molecular Sciences, 2022)

Experiments:
[1] = target: T1, AAH2 (toxoplasmic aromatic amino acid hydroxylase 2), catalytic domain (Toxoplasma gondii, UniProt S8FBW5); assay: coupled NADH oxidation assay (dihydropteridine reductase), […] nm; fit to competitive inhibition equation; assay type: biochemical; details: read-out: KI ^c
T1 construct: catalytic domain, pET-45b (His-tag), expressed in E. coli BL21 GOLD (DE3) pLysS, cobalt resin
T1 sequence (S8FBW5 156-565): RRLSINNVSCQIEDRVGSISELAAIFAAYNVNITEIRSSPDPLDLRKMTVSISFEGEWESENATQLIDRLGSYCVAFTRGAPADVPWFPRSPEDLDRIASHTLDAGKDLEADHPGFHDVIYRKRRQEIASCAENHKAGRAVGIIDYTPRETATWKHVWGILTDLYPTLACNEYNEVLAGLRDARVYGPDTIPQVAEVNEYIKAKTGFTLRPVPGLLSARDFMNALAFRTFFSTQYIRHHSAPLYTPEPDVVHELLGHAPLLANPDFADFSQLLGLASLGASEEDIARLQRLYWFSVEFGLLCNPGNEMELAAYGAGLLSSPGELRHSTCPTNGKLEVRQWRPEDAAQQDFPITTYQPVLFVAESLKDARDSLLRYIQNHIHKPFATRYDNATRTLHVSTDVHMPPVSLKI

[2] = target: T2, AAH1 (toxoplasmic aromatic amino acid hydroxylase 1), catalytic domain (Toxoplasma gondii, UniProt S8G872); assay: as above; assay type: biochemical; details: read-out: KI ^c
T2 construct: catalytic domain, pET-45b (His-tag), expressed in E. coli BL21 GOLD (DE3) pLysS, cobalt resin
T2 sequence (S8G872 1-390 limits assumed): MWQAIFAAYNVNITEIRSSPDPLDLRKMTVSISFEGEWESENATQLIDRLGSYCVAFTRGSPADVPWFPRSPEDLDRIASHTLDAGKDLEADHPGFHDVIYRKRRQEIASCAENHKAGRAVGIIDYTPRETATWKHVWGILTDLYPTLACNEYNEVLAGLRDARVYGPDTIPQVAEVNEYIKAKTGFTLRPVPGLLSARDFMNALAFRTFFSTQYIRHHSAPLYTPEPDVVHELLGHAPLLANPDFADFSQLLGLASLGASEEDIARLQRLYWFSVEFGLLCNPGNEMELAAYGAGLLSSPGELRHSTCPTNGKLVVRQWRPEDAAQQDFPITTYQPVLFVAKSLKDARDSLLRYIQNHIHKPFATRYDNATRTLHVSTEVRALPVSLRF

[3] = target: T2, AAH1 (toxoplasmic aromatic amino acid hydroxylase 1), catalytic domain; assay: DARTS (Pronase protection, Western blot); assay type: binding; details: 10 µM compound, and dose-dependent; room temperature
purified protein = substrate: N[C@@H](Cc1ccc(O)cc1)C(=O)O; assay: purified protein; assay type: biochemical, Toxoplasma gondii; details: no inhibitor, 500 µM (6R)-BH4, 500 µM NADH, 10 µM ferrous ammonium sulfate, pH 7.5, 32 °C

Molecule | Ki [1] [nM] | Ki [2] [nM] | DARTS (Pronase protection, Western blot) [3] | Km (purified protein) [µM]
Cc1nc[nH]c1C(=O)NNC(=S)Nc1ccc([N+](=O)[O-])cc1 [2a] | 3690 | 1490 | Proteolysis of AAH1 by Pronase was clearly inhibited by the presence of 2a and 6a | –
Cc1nc[nH]c1C(=O)NNC(=S)Nc1cccc(I)c1 [6a] | 3230 | 1260 | Proteolysis of AAH1 by Pronase was clearly inhibited by the presence of 2a and 6a | –
AAH1 (toxoplasmic aromatic amino acid hydroxylase 1), catalytic domain (Toxoplasma gondii ME49) (protein, catalytic domain, pET-45b (His-tag), expressed in E. coli BL21 GOLD (DE3) pLysS, cobalt resin) MWQAIFAAYNVNITEIRSSPDPLDLRKMTVSISFEGEWESENATQLIDRLGSYCVAFTRGSPADVPWFPRSPEDLDRIASHTLDAGKDLEADHPGFHDVIYRKRRQEIASCAENHKAGRAVGIIDYTPRETATWKHVWGILTDLYPTLACNEYNEVLAGLRDARVYGPDTIPQVAEVNEYIKAKTGFTLRPVPGLLSARDFMNALAFRTFFSTQYIRHHSAPLYTPEPDVVHELLGHAPLLANPDFADFSQLLGLASLGASEEDIARLQRLYWFSVEFGLLCNPGNEMELAAYGAGLLSSPGELRHSTCPTNGKLVVRQWRPEDAAQQDFPITTYQPVLFVAKSLKDARDSLLRYIQNHIHKPFATRYDNATRTLHVSTEVRALPVSLRF | – | – | – | 30
AAH2 (toxoplasmic aromatic amino acid hydroxylase 2), catalytic domain (Toxoplasma gondii ME49) (protein, catalytic domain, pET-45b (His-tag), expressed in E. coli BL21 GOLD (DE3) pLysS, cobalt resin) RRLSINNVSCQIEDRVGSISELAAIFAAYNVNITEIRSSPDPLDLRKMTVSISFEGEWESENATQLIDRLGSYCVAFTRGAPADVPWFPRSPEDLDRIASHTLDAGKDLEADHPGFHDVIYRKRRQEIASCAENHKAGRAVGIIDYTPRETATWKHVWGILTDLYPTLACNEYNEVLAGLRDARVYGPDTIPQVAEVNEYIKAKTGFTLRPVPGLLSARDFMNALAFRTFFSTQYIRHHSAPLYTPEPDVVHELLGHAPLLANPDFADFSQLLGLASLGASEEDIARLQRLYWFSVEFGLLCNPGNEMELAAYGAGLLSSPGELRHSTCPTNGKLEVRQWRPEDAAQQDFPITTYQPVLFVAESLKDARDSLLRYIQNHIHKPFATRYDNATRTLHVSTDVHMPPVSLKI | – | – | – | 71
